Test results published in US20260207625A1, “New medical use of 3a-ethynyl-3ß hydroxyandrostan-17-one oxime” (priority 2022, published 2026).

Legend:
[1] = test system: 6-OHDA rat model; test: Anxiety, open arena test; format: in vivo; conditions: 6-OHDA rats; 50 mg/kg daily intragastric; 5 weeks after surgery, 10 days of treatment
Source text: (§1) The unilaterally 6-hydroxydopamine (6-OHDA) rat model according to Carvalho M et al. in Molecular Neurodegeneration 2013, 8:14; pp. 1-11, was used.
(§2) Under isoflurane (5% induction and then 2%) anesthesia the animals were placed on a stereotaxic frame with non-traumatic ear bars (Stoelting, USA), and unilaterally injected (left hemisphere) using an 30-gauge needle Hamilton syringe (Hamilton Company, Switzerland), with either vehicle (sham group, n=20) or 6-OHDA hydrochloride (Sigma, USA) (6-OHDA group, n=40) directly into the medial forebrain bundle (coordinates related to Bregma, AP=−4.4 mm; ML=−1.0 mm; DV=−7.8 mm; according to (Paxinos G, Watson C. The Rat Brain in Stereotaxic Coordinates. 4. San Diego, USA: Academic; 1998).
(§3) At a rate of 1 μl/min, sham animals received 2 μl of 0.2 mg/ml ascorbic acid in 0.9% NaCl, and 6-OHDA animals were injected with 2 μl 6-OHDA hydrochloride (4 μg/μl) with 0.2 mg/ml ascorbic acid in 0.9% NaCl. After injection the syringe was left in place for 10 minutes to allow diffusion.
(§4) Rats positive in the apomorphine-induced rotation test (20 animals) were included in the study, together with 20 sham-operated controls. […]
Anxiety was evaluated in an open arena during five minutes by measuring the time that the rat remains in the central zone, instead of close to the walls of the box, where the rats feel safer. […]

[2] = test system: astrocytes; test: Astrocytes activation in striatum (GFAP stained area); format: in vivo, rat; conditions: 6-OHDA rats treated with golexanolone; 5 weeks after surgery; mean±SEM; untreated 6-OHDA rats 123±10%
Source text: as §1, §2, §3, §4
Astrocytes activation was assessed at 5 weeks after surgery, by measuring the total GFAP stained area with Image J software. Results were expressed as percentage of shams.
Astrocyte activation in the striatum was analysed by immunohistochemistry. […]

[3] = test system: 6-OHDA rats treated with L-DOPA; test: L-dopa Induced Dyskinesia (LID) rat model, Abnormal Involuntary Movements (AIMs); format: in vivo; conditions: 6 weeks of daily L-DOPA, 3 weeks of oral golexanolone, compared to group receiving only L-DOPA
Procedure: The ability of golexanolone to reduce or eliminate L-dopa Induced Dyskinesia (LID) was analyzed. This test is described in FIG. 14.
L-dopa Induced Dyskinesia (LID) was induced in a rat model described by Loiodice et al in ACS Chem Neurosci. 2018 Apr. 18; 9(4): pp. 762-772. Abnormal Involuntary Movements (AIM) was measured.
Rats positive in the apomorphine test received daily L-DOPA treatment starting 4 weeks after surgery and oral golexanolone treatment starting 7 weeks after surgery.
The experiment included the following groups: • 1) 6-OHDA rats treated with L-DOPA and receiving vehicle; • 2) 6-OHDA rats treated with golexanolone and treated with L-DOPA (n=12 per group). The appearance of a variety of AIMs were analyzed after 6 weeks of daily L-DOPA injections, and 3 weeks of golexanolone treatment, as described in Lundblad M et al; Eur J Neurosci. 2002 January; 15(1): pp. 120-132, and Loiodice et al in ACS Chem Neurosci. 2018 Apr. 18; 9(4): pp. 762-772.
Axial AIMs, limb AIMs, orolingual AIMs and locomotive AIMs were evaluated. One hour after the daily dose of golexanolone, L-DOPA was injected and AIMs were analyzed every 20 minutes for a total of three hours, as shown in FIG. 15.
As shown in this graph, there were less AIMs in the group of animals treated with golexanolone compared to the group who received only L-DOPA.

[4] = test system: 6-OHDA rat model; test: Fatigue in treadmill test, 6-OHDA rats; format: in vivo; conditions: golexanolone 50 mg/kg daily intragastric, 5 weeks after surgery, 9 days of treatment
Source text: A 6-OHDA rat model as described by Heo et al. (Curr Biol. 2020 Jan. 20; 30(2): pp. 276-291) and by Carvalho et al. (Mol. Neurodegener. 2013, 8: 14: Behavioral characterization of the 6-hydroxidopamine model of Parkinson's disease and pharmacological rescuing of non-motor deficits) is used.
as §1
Eight week old Wistar-Han male rats (56 animals) (Charles River, Barcelona) were housed, two per cage, under standard laboratory conditions: 12 hour light-dark cycle, 22° C. room temperature, 55% relative humidity, food and water available ad libitum. All manipulations were done in accordance with the local regulations (European Union Directive 2010/63/EU). […]
Fatigue was evaluated in a treadmill consisting of a motorized conveyor belt divided into two parallel sectors, each with an electrified grid. […] The value recorded during the last 15 minutes of each test (and the times it falls on the grid) is recorded. […]

[5] = test system: 6-OHDA rat model; test: CatWalk test, initial dual stance; format: in vivo; conditions: 6-OHDA rats; 50 mg/kg daily intragastric
Source text: as §1, §2
(§5) At a rate of 1 μl/min, sham animals received 2 μl of 0.2 mg/ml ascorbic acid in 0.9% NaCl, and 6-OHDA animals were injected with 2 μl 6-OHDA hydrochloride (4 μg/μl) with 0.2 mg/ml ascorbic acid in 0.9% NaCl. After injection the syringe was left in place for 10 minutes to allow diffusion. […]
(§6) The CatWalk™ system measures various aspects of locomotor pattern. Based on the position, pressure, and surface area of each footfall, multiple parameters are calculated. […] Paw print designations were assigned and data analysed using the CatWalk analysis software (v 7.1)
Initial dual stance was evaluated in the catwalk test. […]

[6] = test system: 6-OHDA rat model; test: CatWalk test, locomotor gait swing; format: in vivo; conditions: 6-OHDA rats; 50 mg/kg daily intragastric; 7 weeks after surgery, 3 weeks of treatment
Source text: as §1, §2, §5, §6
Locomotor gait swing was evaluated in the catwalk test. […]

[7] = test system: 6-OHDA rat model; test: Motor coordination, Motorater test (horizontal ladder); format: in vivo; conditions: 6-OHDA rats; 50 mg/kg daily intragastric; 7 weeks after surgery, 3 weeks of treatment; versus control rats
Source text: as §1, §2
At a rate of 1 μl/min, sham animals received 2 μl of 0.2 mg/ml ascorbic acid in 0.9% NaCl, and 6-OHDA animals were injected with 2 μl 6-OHDA hydrochloride (4 μg/μl) with 0.2 mg/ml ascorbic acid in 0.9% NaCl. […]
Motor coordination was tested with the Motorater test (Zörner B, Filli L, Starkey M L, Gonzenbach R, Kasper H, Röthlisberger M, et al. Profiling locomotor recovery: comprehensive quantification of impairments after CNS damage in rodents. Nat Methods. 2010; 7(9): pp. 701-708). […] The performance is recorded from the bottom by a mobile high-speed camera at 200 frames per second. Failures to set a foot on the ladder stairs are quantified.

[8] = test system: 6-OHDA rat model; test: Sucrose preference test (anhedonia, depression); format: in vivo; conditions: 6-OHDA rats; 50 mg/kg daily intragastric; 7 weeks after surgery, 3 weeks of treatment
Source text: as §1, §2, §3
(§7) Rats positive in the apomorphine-induced rotation test (20 animals) were included in the study, together with 20 sham-operated controls. Golexanolone treatment (50 mg/kg, daily, intragastric) and vehicle treatment as negative controls started 4 weeks after surgery. […]

[9] = test system: microglia; test: Microglia activation in striatum (perimeter of Iba1 stained cells); format: in vivo, rat; conditions: 6-OHDA rats treated with golexanolone; 5 weeks after surgery; mean±SEM; untreated 6-OHDA 217±8, shams 254±1
Source text: as §1, §2, §3, §4
In this Parkinson's Disease test model, microglia activation was analyzed by measuring the perimeter of individual Iba1 stained cells with IpWin2 software at 5 weeks after surgery.

[10] = test system: tyrosine hydroxylase (TH); test: Tyrosine hydroxylase content in striatum, immunohistochemistry; format: in vivo, rat; conditions: 6-OHDA rats treated with golexanolone; 5 weeks after surgery; mean±SEM; untreated 6-OHDA rats 36±4%
Source text: as §1, §2, §3, §7
Tyroxine hydroxylase (TH) was analysed according to Heo et al (Curr Biol. 2020 Jan. 20; 30(2): pp. 276-291). […]

[11] = test system: 6-OHDA rat model; test: Object location memory test (OLM); format: in vivo; conditions: 6-OHDA rats; 50 mg/kg daily intragastric; 6 weeks after surgery, 2 weeks of treatment
Source text: as §1, §2, §5
The object location memory test (OLM) evaluates spatial location memory. […] The time exploring each object is analyzed. The discrimination ratio is calculated: (Time exploring new object location-time exploring old located object)/total time exploring the objects. […]

[12] = test system: α-synuclein; test: α-synuclein content in striatum by Western blot; format: in vivo, rat; conditions: 6-OHDA rats treated with golexanolone, 10 weeks after surgery, mean±SEM, untreated 6-OHDA rats 195±35%
Source text: as §1, §2, §5
α-synuclein content was analyzed by Western blot. […] Membranes were scanned using the ScanJet 5300C (Hewlett-Packard, Amsterdam, the Netherlands) and band intensities were quantified using Alpha Imager 2200 version 3.1.3 (Alpha Innotech Corporation). Results were expressed as percentage of shams. […]

C#C[C@]1(O)CC[C@@]2(C)C(CC[C@@H]3[C@@H]2CC[C@]2(C)/C(=N/O)CC[C@@H]32)C1 (stereo partly drawn) [golexanolone, 3α-ethynyl-3β-hydroxyandrostan-17-one oxime]
Anxiety (time in the central zone of open arena) [1]: improves anxiety | Astrocyte activation: total GFAP stained area in the injured striatum [2]: 92±4 % of shams | All AIMs (axial, limb, orolingual and locomotive) during three hours [3]: less AIMs | Fatigue (time in the treadmill, time in shock) [4]: improved fatigue | Initial dual stance in the CatWalk test [5]: improves initial dual stance | Locomotor gait swing in the CatWalk test [6]: improved swing | Errors crossing the horizontal ladder (failures to set a foot on the ladder stairs) [7]: made less errors | Depression (anhedonia, sucrose preference) [8]: improves depression | Microglia activation: perimeter of individual Iba1 stained cells in the injured striatum [9]: 250±8 μm | TH staining in the striatum [10]: 62±11 % of shams | Object location memory (discrimination ratio) [11]: improves object location memory | Level of α-synuclein in the injured striatum [12]: 99±9 % of shams
